The source of these data is patent US20110105397A1, “METHOD FOR TREATING HEART FAILURE WITH STRESSCOPIN-LIKE PEPTIDES” (priority 2009, published 2011).

In assay [1] the target is T1, h-CRHR2b (Homo sapiens, UniProt Q13324).
T1 sequence (Q13324 1-438 isoform Q13324-2): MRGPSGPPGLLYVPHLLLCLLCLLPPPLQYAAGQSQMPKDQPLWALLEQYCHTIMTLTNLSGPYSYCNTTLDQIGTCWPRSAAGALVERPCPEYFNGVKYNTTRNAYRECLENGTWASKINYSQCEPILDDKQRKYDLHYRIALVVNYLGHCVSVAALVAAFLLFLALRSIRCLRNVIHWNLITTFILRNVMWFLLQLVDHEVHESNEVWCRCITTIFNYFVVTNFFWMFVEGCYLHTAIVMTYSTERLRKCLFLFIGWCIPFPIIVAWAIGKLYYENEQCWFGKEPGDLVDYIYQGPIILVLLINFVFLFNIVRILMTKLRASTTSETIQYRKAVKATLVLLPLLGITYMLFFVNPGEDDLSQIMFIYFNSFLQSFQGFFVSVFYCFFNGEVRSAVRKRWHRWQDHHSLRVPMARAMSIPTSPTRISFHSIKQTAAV
As to conditions: h-CRHR2b transfected HEK-293 cells, approximated values from concentration response curves (Hsu et al., 2001); cited from earlier work.

For assay [2], the target named is T2, CRHR1 (Homo sapiens, UniProt P34998).
T2 sequence (P34998 24-415): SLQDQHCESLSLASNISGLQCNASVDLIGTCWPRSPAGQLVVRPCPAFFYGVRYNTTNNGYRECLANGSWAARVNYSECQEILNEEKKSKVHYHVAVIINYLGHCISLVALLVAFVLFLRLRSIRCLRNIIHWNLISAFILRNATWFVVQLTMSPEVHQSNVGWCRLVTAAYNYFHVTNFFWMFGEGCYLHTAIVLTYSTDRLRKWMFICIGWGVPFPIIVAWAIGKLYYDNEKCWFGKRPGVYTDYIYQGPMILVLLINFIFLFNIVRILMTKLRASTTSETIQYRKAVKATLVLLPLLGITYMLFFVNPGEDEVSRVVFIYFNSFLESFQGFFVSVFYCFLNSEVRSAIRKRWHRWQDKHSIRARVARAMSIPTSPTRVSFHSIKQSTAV
Put plainly: CRHR1 radioligand binding, [125I]-(Tyr0)-sauvagine. Also noted: host or cells: cell membranes. From the text:
The solution was then homogenized with a Polytron tissue grinder at a setting of 10 and 7×3 s (Brinkmann Instruments, Westbury, N.Y.). […] The bound radioactivity was separated by filtration using a Multiscreen Resist manifold (Millipore Corp., Billerica, Mass., U.S.A). The filters were washed three times with ice-cold PBS at pH 7.5 and radioactivity retained on the filters was quantified by its liquid scintillation measured by a TopCount counter (Packard BioScience, Boston, Mass., U.S.A). All experiments were performed in triplicate.

Assay [3] concerns the target T2, CRHR1. Put plainly: cAMP assay, h-CRHR1 transfected SK-N-MC cells. As to conditions: Table 11; for EC50: h-CRHR1 transfected SK-N-MC cells, 1 hr at 37° Celsius, read-out: pA50 (Experimental) (converted). Also noted: expressed in transfected cells. The class given is cell-based. The procedure: Human CRHR1 (accession number X72304) or CRHR2 (accession number U34587) were cloned into pcDNA3.1/Zeo expression vector and stably transfected into SK—N-MC cells by electroporation. Cells were maintained in MEM w/Earl's Salt with 10% FBS, 50 I.U. penicillin, 50 μg/ml streptomycin, 2 mM L-glutamine, 1 mM sodium pyruvate and 0.1 mM non-essential amino acids, 600 μg/ml G418. Cells were grown at 37° C. in 5% CO2
Cells were plated in 96-well tissue culture dishes (Biocoat from BD Biosciences) overnight at 50,000 cell/well. Cells were washed with PBS then resuspended in DMEM F-12 without phenol red, containing 10 μM isobutylmethylxanthine (IBMX). Cells were incubated with the peptides at concentrations ranging from 1 pM to 10 μM for 60 min at 37° Celsius. […] Forskolin (10 μM), a direct stimulant of adenylate cyclase, was used as positive control. The assays were stopped by the addition of 0.5 M HCl and mixing by orbital rotation for 2 h at 4° Celsius.
Transfected SK—N-MC cells were plated in 96-well Biocoat tissue culture dishes (BD Biosciences, San Jose, Calif., U.S.A) overnight at 50,000 cell/well. Cells were first washed with PBS and then suspended with DMEM/F-12 without phenol red, containing […]. Suspended cells were transferred into a 96-well flash plate coated with scintillant fluid. Cells were incubated with peptides ranging from 1 pM to 1 μM, for 60 min, at 37° Celsius. Forskolin at 10 μM was used as positive control. After ligand stimulation, cells were lysed by the addition of 0.5M HCl and mixed by orbital rotation for 2 h at 4° Celsius in order to release intracellular cAMP into the media.
Media containing released intracellular cAMP was transferred to a 96-well flash plate coated with scintillant fluid containing an anti-cAMP antibody. […] To generate a standard curve, cAMP ranging from 2.5 to 250 pmoles/ml was included in the experiment.
Individual agonist concentration-response curve data were fitted to the Hill equation, see formula below, using GraphPad Prism (Graphpad Software, La Jolla, Calif., U.S.A.), to provide estimates of agonist concentration needed to generate one-half maximal response (A50), and the maximal asymptote (α) and Hill slope (nH) parameters. In this equation, [A] is the agonist concentration and E is the measured effect:
For display purposes the mean fitted parameter estimates were used to generate a single E/[A] curve shown superimposed on the mean experimental data. Potency estimates for agonists, pA50, are expressed as the negative logarithm of the midpoint of each curve and listed with their standard error of measurement (SEM).
Human and rat peptides (see Table 10) were used on the stimulation of h-CRHR1 or h-CRHR2 transfected SK—N-MC cells in the cAMP flash plate assay. Peptides were incubated for 1 hr at 37° Celsius. Curves were calculated using non-linear regression sigmoidal concentration-response analysis calculation in GraphPad Prism.
(Cyclic AMP is a second messenger, typically raised through Gs and lowered through Gi signalling.)

Where “and” joins values, the source holds several entries; their conditions need not be identical. Equal entries are not always repeated.

For “H-TKFTLSLDVPTNIMNLLFNIAKAKNLRAQAAANAHLMAQI-NH2 [SEQ ID NO: 1, TKFTLSLDVPTNIMNLLFNIAKAKNLRAQAAANAHLMAQI-NH2]”, in assay [1], the “Published pA50” value is given as ~9^4. In assay [2], the affinity corresponds to a Ki of 25100 nM and the nH was found to be 1.16 ± 0.65. Moreover, in assay [3], the EC50 is more than 10000 nM.

For “H-HPGSRIVLSLDVPIGLLQILLEQARARAAREQATTNARILARV-NH2 [SEQ ID NO: 117, HPGSRIVLSLDVPIGLLQILLEQARARAAREQATTNARILARV-NH2, reference compound]”, the “Published pA50” value in assay [1] was ~9^4. In addition, in assay [3] (h-CRHR1, listed as h-SRP), the “nH (Hill slope)” value was 1.61 and 1.33 and 1.26. In addition, the EC50 in assay [3] is 457 nM and 631 nM and 525 nM.

As to `CC[C@H](C)[C@H](NC(=O)[C@H](CO)NC(=O)[C@H](CC(C)C)NC(=O)[C@@H]1CCCN1C(=O)[C@@H]1CCCN1C(=O)[C@H](CC(=O)O)NC(=O)[C@@H](N)CC(=O)O)C(=O)N[C@@H](CC(=O)O)C(=O)N[C@@H](CC(C)C)C(=O)N[C@H](C(=O)N[C@@H](Cc1ccccc1)C(=O)N[C@@H](Cc1c[nH]cn1)C(=O)N[C@@H](CC(C)C)C(=O)N[C@@H](CC(C)C)C(=O)N[C@@H](CCCNC(=N)N)C(=O)N[C@H](C(=O)N[C@@H](CC(C)C)C(=O)N[C@@H](CC(C)C)C(=O)N[C@@H](CCC(=O)O)C(=O)N[C@@H](CC(C)C)C(=O)N[C@@H](C)C(=O)N[C@@H](CCCNC(=N)N)C(=O)N[C@H](C(=O)N[C@@H](CCC(N)=O)C(=O)N[C@@H](CO)C(=O)N[C@@H](CCC(N)=O)C(=O)N[C@@H](CCCNC(=N)N)C(=O)N[C@@H](CCC(=O)O)C(=O)N[C@@H](CCCNC(=N)N)C(=O)N[C@@H](C)C(=O)N[C@@H](CCC(=O)O)C(=O)N[C@@H](CCC(N)=O)C(=O)N[C@@H](CC(N)=O)C(=O)N[C@@H](CCCNC(=N)N)C(=O)N[C@H](C(=O)N[C@H](C(=O)N[C@@H](Cc1ccccc1)C(=O)N[C@@H](CC(=O)O)C(=O)N[C@@H](CO)C(=O)N[C@H](C(N)=O)C(C)C)[C@@H](C)CC)[C@@H](C)CC)[C@@H](C)O)[C@@H](C)O)[C@@H](C)O` [SEQ ID NO: 114, DDPPLSIDLTFHLLRTLLELARTQSQRERAEQNRIIFDSV-NH2], the nH in assay [2] amounted to 0.91 ± 0.27. In assay [3] (h-CRHR1), the “nH (Hill slope)” value was determined as 1.15 and the “αmax (maximal asymptote)” value is recorded as 99.61.

Usually Ki stands for the dissociation constant of the complex between target and ligand, obtained from inhibition or displacement. High values mean weaker binding, low ones tighter binding.
